# Test results reported in patent publication US12331044B2, “Inhibitors of histone deacetylase useful for the treatment or prevention of HIV infection” (Merck Sharp & Dohme LLC, priority 2018, dated 2025).
# Where two headings read alike, the source gives them in different places.
# Key:
# [1] = tested on: KARN cells (Jurkat 2C4); assay: cells; conditions: Homo sapiens
# [2] = molecular target: human HDAC1 (Homo sapiens (Human), UniProt Q13547)
# [3] = molecular target: human HDAC3/SMRT heterodimer (Homo sapiens (Human), UniProt O15379)
# human HDAC3/SMRT heterodimer, sequence (O15379 whole entry): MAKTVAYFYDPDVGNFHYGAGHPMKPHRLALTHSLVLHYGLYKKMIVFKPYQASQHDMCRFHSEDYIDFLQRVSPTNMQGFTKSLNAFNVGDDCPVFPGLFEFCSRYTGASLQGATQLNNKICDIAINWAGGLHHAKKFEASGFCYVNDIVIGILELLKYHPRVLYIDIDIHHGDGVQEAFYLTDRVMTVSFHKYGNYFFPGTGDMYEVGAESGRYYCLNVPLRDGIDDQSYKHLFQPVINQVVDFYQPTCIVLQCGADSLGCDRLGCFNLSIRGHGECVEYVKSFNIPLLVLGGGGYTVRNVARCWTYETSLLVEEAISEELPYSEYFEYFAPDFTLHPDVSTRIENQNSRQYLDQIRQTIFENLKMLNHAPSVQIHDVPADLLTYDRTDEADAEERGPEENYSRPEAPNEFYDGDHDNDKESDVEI
# human HDAC3/SMRT heterodimer, sequence (Q9Y618 1-899 partner): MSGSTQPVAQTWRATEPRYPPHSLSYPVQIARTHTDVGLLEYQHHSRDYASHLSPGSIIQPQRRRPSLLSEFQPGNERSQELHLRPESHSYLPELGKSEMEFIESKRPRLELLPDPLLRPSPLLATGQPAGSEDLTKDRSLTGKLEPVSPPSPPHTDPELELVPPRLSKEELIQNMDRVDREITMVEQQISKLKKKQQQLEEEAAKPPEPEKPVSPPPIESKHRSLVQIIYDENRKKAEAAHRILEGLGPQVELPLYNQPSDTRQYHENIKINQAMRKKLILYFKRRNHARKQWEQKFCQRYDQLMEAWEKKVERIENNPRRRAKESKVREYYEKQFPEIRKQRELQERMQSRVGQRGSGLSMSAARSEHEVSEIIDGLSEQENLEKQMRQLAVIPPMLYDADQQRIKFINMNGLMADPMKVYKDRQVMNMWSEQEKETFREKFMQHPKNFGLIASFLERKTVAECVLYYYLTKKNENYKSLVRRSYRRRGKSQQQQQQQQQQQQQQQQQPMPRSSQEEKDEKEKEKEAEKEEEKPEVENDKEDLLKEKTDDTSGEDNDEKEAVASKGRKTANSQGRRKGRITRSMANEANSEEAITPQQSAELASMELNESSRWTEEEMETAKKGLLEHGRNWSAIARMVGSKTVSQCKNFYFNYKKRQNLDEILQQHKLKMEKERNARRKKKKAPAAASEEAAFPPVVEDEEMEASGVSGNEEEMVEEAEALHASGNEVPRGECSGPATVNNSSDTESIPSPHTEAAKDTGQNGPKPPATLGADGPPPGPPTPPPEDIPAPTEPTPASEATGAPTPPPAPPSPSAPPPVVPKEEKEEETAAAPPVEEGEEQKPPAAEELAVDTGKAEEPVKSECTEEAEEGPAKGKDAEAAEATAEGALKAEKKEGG
# [4] = molecular target: human HDAC8 (Homo sapiens (Human), UniProt Q9BY41); assay: HDAC8 inhibition assay (modified FLUOR DE LYS, 384-well); format: biochemical; conditions: […] enzyme, 200 μM substrate BML-KI178, 3 h pre-incubation; read-out: HDAC8 IC50
# human HDAC8, sequence (Q9BY41 whole entry): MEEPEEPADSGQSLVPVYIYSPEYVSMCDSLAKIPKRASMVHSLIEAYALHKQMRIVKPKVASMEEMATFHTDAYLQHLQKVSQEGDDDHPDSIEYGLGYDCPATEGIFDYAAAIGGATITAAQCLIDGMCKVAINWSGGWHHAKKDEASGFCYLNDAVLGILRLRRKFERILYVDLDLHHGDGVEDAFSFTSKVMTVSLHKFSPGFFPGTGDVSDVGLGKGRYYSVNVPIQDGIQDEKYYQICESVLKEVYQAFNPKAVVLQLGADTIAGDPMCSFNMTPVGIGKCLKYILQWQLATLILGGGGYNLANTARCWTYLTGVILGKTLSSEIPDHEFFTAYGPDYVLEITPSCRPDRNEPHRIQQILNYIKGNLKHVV
# Procedure: The histone deacetylase activities of HDAC1, HDAC2, HDAC3, HDAC6, and HDAC8 were measured in modified FLUOR DE LYS assays in 384-well format. In this assay, HDAC enzymes are initially incubated with an F-acetyl (or -trifluoroacetyl)-L-lysine-containing substrate with a C-terminal amide having aminomethylcoumarin as the amine component. HDACs cleave the F-acetyl group, rendering the resulting product susceptible to AMC cleavage by trypsin. The released AMC is then detected by its fluorescence. […] All steps were performed at room temperature (23° C.). The assay was performed by pre-incubating serial dilutions of test compounds with the target HDAC prior to initiation with substrate. […] Final conditions used for each assay were: 1. […] The reactions were stopped and developed by addition of 30 ul of HDAC developer solution containing a saturating level of HDAC inhibitor as follows: 1. […] For data analysis, background subtracted product (fluorescence) vs. time data for each inhibitor concentration was fitted using a 4-parameter fit.
# [5] = molecular target: human HDAC2 (Homo sapiens (Human), UniProt Q92769); assay: HDAC2 inhibition assay (modified FLUOR DE LYS, 384-well); format: biochemical; conditions: […] enzyme, 40 μM substrate BML-KI104, 3 h pre-incubation; read-out: HDAC2 IC50
# human HDAC2, sequence (Q92769 whole entry): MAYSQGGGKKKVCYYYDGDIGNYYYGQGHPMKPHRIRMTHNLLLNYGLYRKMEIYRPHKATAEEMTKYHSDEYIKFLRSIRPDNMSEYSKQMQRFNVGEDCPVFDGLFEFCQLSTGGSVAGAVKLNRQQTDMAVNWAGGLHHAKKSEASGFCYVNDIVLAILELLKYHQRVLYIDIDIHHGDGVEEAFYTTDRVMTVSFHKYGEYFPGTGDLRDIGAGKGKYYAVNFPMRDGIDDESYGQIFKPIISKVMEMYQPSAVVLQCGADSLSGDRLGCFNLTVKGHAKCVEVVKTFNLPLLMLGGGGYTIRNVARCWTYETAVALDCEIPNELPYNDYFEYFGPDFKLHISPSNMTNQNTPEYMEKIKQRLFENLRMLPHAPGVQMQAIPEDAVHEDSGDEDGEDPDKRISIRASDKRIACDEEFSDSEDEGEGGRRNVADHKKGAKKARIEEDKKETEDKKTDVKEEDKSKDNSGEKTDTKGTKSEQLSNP
# [6] = molecular target: HDAC6 (Homo sapiens (Human), UniProt Q9UBN7)
# HDAC6, sequence (Q9UBN7 whole entry): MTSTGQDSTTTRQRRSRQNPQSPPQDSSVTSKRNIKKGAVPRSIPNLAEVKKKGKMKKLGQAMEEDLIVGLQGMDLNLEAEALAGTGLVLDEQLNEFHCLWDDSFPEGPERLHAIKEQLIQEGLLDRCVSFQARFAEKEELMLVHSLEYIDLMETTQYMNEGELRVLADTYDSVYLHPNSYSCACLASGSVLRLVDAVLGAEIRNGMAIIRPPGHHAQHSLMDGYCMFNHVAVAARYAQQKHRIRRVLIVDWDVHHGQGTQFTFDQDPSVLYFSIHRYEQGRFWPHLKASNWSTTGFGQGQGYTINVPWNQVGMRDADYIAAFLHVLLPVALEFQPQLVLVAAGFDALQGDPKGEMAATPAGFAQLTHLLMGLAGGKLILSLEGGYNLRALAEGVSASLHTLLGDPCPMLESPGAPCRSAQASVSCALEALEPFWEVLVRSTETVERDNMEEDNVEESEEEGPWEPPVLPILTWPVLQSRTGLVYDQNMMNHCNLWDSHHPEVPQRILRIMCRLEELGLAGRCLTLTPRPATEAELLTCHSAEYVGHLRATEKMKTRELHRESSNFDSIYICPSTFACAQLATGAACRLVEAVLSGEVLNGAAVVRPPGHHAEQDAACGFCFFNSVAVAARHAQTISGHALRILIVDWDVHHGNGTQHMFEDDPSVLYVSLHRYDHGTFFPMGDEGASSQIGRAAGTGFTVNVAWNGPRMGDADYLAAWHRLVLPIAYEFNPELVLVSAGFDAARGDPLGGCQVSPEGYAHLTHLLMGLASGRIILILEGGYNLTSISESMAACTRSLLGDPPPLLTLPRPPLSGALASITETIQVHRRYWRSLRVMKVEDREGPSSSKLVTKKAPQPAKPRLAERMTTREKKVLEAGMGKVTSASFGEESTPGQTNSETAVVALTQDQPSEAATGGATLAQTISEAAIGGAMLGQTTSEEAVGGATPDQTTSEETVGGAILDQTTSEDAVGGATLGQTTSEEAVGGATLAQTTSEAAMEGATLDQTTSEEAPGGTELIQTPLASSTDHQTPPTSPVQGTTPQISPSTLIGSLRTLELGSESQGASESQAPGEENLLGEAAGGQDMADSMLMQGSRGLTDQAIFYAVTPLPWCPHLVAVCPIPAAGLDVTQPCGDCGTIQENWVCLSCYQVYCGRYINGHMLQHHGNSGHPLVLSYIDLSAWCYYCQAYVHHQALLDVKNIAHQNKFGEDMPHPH
# [7] = read-out: Karn EC50 nM 0.1% NHS, 0.1% normal human serum, luciferase induction, 2 μM SAHA = 100%
# [8] = read-out: Karn EC50 nM 5% NHS, 5% normal human serum, luciferase induction, 2 μM SAHA = 100%
# human HDAC1, sequence (Q13547 whole entry): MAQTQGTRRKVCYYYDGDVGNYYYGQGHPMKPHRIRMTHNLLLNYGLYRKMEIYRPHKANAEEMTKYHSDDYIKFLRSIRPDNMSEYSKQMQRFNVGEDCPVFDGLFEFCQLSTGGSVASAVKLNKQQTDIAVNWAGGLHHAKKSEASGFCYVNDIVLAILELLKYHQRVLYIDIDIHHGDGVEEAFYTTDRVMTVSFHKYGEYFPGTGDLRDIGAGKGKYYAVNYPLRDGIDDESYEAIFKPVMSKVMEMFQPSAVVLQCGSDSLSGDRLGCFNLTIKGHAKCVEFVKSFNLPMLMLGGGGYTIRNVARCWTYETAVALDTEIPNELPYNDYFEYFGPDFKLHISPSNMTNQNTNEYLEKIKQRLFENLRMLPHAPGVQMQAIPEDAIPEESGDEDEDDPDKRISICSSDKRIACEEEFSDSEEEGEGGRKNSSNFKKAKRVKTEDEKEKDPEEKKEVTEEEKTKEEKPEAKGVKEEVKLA
Compound,"EC50 [1, 7]","EC50 [1, 8]",IC50 [2],IC50 [3],IC50 [4],IC50 [5],IC50 [6]
CN(C)CC(=O)N[C@@H](CCCCCC(=O)c1ncco1)c1ncc(-c2ccc3c(ccc(=O)n3C)c2)[nH]1 [Example 46],31 nM,44 nM,1.7 nM,1.5 nM,91 nM,9.6 nM,45000 nM
"CN1CCC2(CC1)C[C@@H]2C(=O)N[C@@H](CCCCCC(=O)c1ccon1)c1nc(Cl)c(-c2ccc(F)cc2)[nH]1 [Example 195, (S)-N-((S)-1-(4-chloro-5-(4-fluorophenyl)-1H-imidazol-2-yl)-7-(isoxazol-3-yl)-7-oxoheptyl)-6-methyl-6-azaspiro[2.5]octane-1-carboxamide 2,3-dihydroxysuccinate]",1.4 nM,1.9 nM,0.14 nM,0.046 nM,9.6 nM,0.32 nM,3100 nM
"CCN1CCC2(CC1)C[C@@H]2C(=O)N[C@@H](CCCCCC(=O)c1ncco1)c1ncc(-c2cc(OC)ncc2F)[nH]1 [Example 179, (1S)-6-ethyl-N-[(1S)-1-[5-(5-fluoro-2-methoxypyridin-4-yl)-1H-imidazol-2-yl]-7-(1,3-oxazol-2-yl)-7-oxoheptyl]-6-azaspiro[2.5]octane-1-carboxamide]",36 nM,48 nM,2.3 nM,1.5 nM,65 nM,7.1 nM,4300 nM
COc1nc2ccccc2cc1-c1cnc([C@H](CCCCCC(=O)c2ncco2)NC(=O)CN2CCCCC2)[nH]1 [Example 53],26 nM,220 nM,2.4 nM,1.6 nM,92 nM,4.9 nM,1100 nM
"COc1cc2nc(C)ccc2cc1-c1cnc([C@H](CCCCCC(=O)c2ncco2)NC(=O)C2(C)CCCCO2)[nH]1 (stereo partly drawn) [Example 170, N-[(1S)-1-[5-(7-methoxy-2-methylquinolin-6-yl)-1H-imidazol-2-yl]-7-(1,3-oxazol-2-yl)-7-oxoheptyl]-2-methyltetrahydro-2H-pyran-2-carboxamide]",160 nM,260 nM,4.1 nM,1.6 nM,220 nM,17 nM,> 900 nM
"COc1nc2ccccc2cc1-c1cnc([C@H](CCCCCC(=O)c2ncco2)NC(=O)Cn2cccc2)[nH]1 [Example 150, N-[(1S)-1-[5-(2-methoxyquinolin-3-yl)-1H-imidazol-2-yl]-7-(1,3-oxazol-2-yl)-7-oxoheptyl]-2-(1H-pyrrol-1-yl)acetamide]",94 nM,500 nM,2.1 nM,1.5 nM,120 nM,8.8 nM,2700 nM
"CCN1CCC2(CC1)C[C@@H]2C(=O)N[C@@H](CCCCCC(=O)c1ncco1)c1ccn(-c2ccc3nn(C)cc3c2)n1 [Example 180, (1S)-6-ethyl-N-[(1S)-1-[1-(2-methyl-2H-indazol-5-yl)-1H-pyrazol-3-yl]-7-(1,3-oxazol-2-yl)-7-oxoheptyl]-6-azaspiro[2.5]octane-1-carboxamide]",200 nM,190 nM,0.9 nM,1.5 nM,170 nM,5.2 nM,> 900 nM
"COc1nc(C2CC2)ccc1-c1c[nH]c([C@H](CCCCCC(=O)c2ncco2)NC(=O)[C@H]2CC23CCN(C)CC3)n1 [Example 115, (S)-N-((S)-1-(4-(6-cyclopropyl-2-methoxypyridin-3-yl)-1H-imidazol-2-yl)-7-(oxazol-2-yl)-7-oxoheptyl)-6-methyl-6-azaspiro[2.5]octane-1-carboxamide]",37 nM,58 nM,0.66 nM,0.84 nM,51 nM,3.9 nM,300 nM
"COc1cc2nc(C)ccc2cc1-c1cnc([C@H](CCCCCC(=O)c2ncco2)NC(=O)Cn2cccc2)[nH]1 [Example 162, N-[(1S)-1-[5-(7-methoxy-2-methylquinolin-6-yl)-1H-imidazol-2-yl]-7-(1,3-oxazol-2-yl)-7-oxoheptyl]-2-(1H-pyrrol-1-yl)acetamide]",650 nM,1200 nM,4.2 nM,1.5 nM,300 nM,24 nM,> 900 nM
COc1nc2ccccc2cc1-c1cnc([C@H](CCCCCC(=O)c2ncco2)NC(=O)c2cncs2)[nH]1 [Example 42],52 nM,340 nM,1.7 nM,1.5 nM,27 nM,5.4 nM,13000 nM
"COc1cc2nc(C)ccc2cc1-c1cnc([C@H](CCCCCC(=O)c2ncco2)NC(=O)c2cc3ccccn3n2)[nH]1 [Example 167, N-[(1S)-1-[5-(7-methoxy-2-methylquinolin-6-yl)-1H-imidazol-2-yl]-7-(1,3-oxazol-2-yl)-7-oxoheptyl]pyrazolo[1,5-a]pyridine-2-carboxamide]",83 nM,400 nM,2.2 nM,0.59 nM,63 nM,13 nM,> 900 nM
"COc1cc2nc(C)ccc2cc1-c1cnc([C@H](CCCCCC(=O)c2ncco2)NC(=O)CN2CCOCC2=O)[nH]1 [Example 158, N-[(1S)-1-[5-(7-methoxy-2-methylquinolin-6-yl)-1H-imidazol-2-yl]-7-(1,3-oxazol-2-yl)-7-oxoheptyl]-2-(3-oxomorpholin-4-yl)acetamide]",210 nM,210 nM,1.1 nM,1.5 nM,48 nM,5.6 nM,590 nM
"COc1cc2nc(C)ccc2cc1-c1cnc([C@H](CCCCCC(=O)c2ncco2)NC(=O)C2CCCCO2)[nH]1 (stereo partly drawn) [Example 168, N-[(1S)-1-[5-(7-methoxy-2-methylquinolin-6-yl)-1H-imidazol-2-yl]-7-(1,3-oxazol-2-yl)-7-oxoheptyl]tetrahydro-2H-pyran-2-carboxamide]",100 nM,200 nM,3 nM,1.2 nM,120 nM,12 nM,> 900 nM
COc1cc2nc(C)ccc2cc1-c1cnc([C@H](CCCCCC(=O)c2cc(C)on2)NC(=O)C2CC23CCN(C)CC3)[nH]1 (stereo partly drawn) [Example 58],6.8 nM,11 nM,0.18 nM,0.18 nM,120 nM,0.9 nM,45000 nM
"N[C@@H](CCCCCC(=O)c1ncco1)c1ncc(-c2cccc(F)c2F)[nH]1 [Example 136, (7S)-7-amino-7-[5-(2,3-difluorophenyl)-1H-imidazol-2-yl]-1-(1,3-oxazol-2-yl)heptan-1-one]",–,–,110 nM,100 nM,> 900 nM,380 nM,> 900 nM
"N[C@@H](CCCCCC(=O)c1ncco1)c1ncc(-c2cc(C(F)(F)F)ccc2F)[nH]1 [Example 137, (7S)-7-amino-7-{5-[2-fluoro-5-(trifluoromethyl)phenyl]-1H-imidazol-2-yl}-1-(1,3-oxazol-2-yl)heptan-1-one]",–,–,61 nM,45 nM,> 900 nM,240 nM,> 900 nM
